Consider 17 molecules from patent US11129827B2 (priority 2017, dated 2021).

The target in test [1] is MAGL (Mus musculus (Mouse), UniProt O35678). The test can be described thus: in vivo. Particulars: po, read-out: MAGL (mouse) % inh. 5 mg/kg.
The target in test [2] is FAAH (Homo sapiens (Human), UniProt O00519). The test can be described thus: biochemical. The settings on record: for inhibition at 1 µM: read-out: FAAH (human) % inh. 1 μM.
For test [3], the target named is MAGL (Homo sapiens (Human), UniProt Q99685). The test can be described thus: biochemical. Particulars: for inhibition at 1 µM: read-out: MAGL (human) % inh. 1 μM.
Test [4] has as its target FAAH (Mus musculus (Mouse), UniProt O08914). The test can be described thus: in vivo. Particulars: po, read-out: FAAH (mouse) % inh. 5 mg/kg.

Read-outs that look alike come from different tables or passages of the source. Where only a bound is given, the exact number is not on record here.

`NC(=O)c1cncc(OC(=O)N2CCC3(CCN(Cc4cc(Cl)ccc4C(F)(F)F)C3)CC2)c1` [Example 4, 5-Carbamoylpyridin-3-yl 2-(5-chloro-2-(trifluoromethyl)benzyl)-2,8-diazaspiro[4.5]decane-8-carboxylate]: the inhibition at 5 mg/kg at MAGL [1] and on FAAH [4] was greater than 75% throughout. For the same molecule, the inhibition at 1 µM on FAAH [2] and on MAGL [3] was greater than 75% in each case. The IC50 at FAAH [2] (read-out: FAAH (human) IC50) and on MAGL [3] (read-out: MAGL (human) IC50) was less than 100 nM throughout.

For `O=C(Oc1cncc(C(F)(F)F)c1)N1CCC2(CC1)CN(Cc1cccc(Oc3nc4ccccc4s3)c1)C2` [Example 7, 5-(Trifluoromethyl)pyridin-3-yl 2-(3-(benzo[d]thiazol-2-yloxy)benzyl)-2,7-diazaspiro[3.5]nonane-7-carboxylate], the inhibition at 5 mg/kg was 25 to 50% on MAGL [1] and greater than 75% at FAAH [4]. The inhibition at 1 µM at FAAH [2] and at MAGL [3] was greater than 75% each time. The IC50 at FAAH [2] (read-out: FAAH (human) IC50) and at MAGL [3] (read-out: MAGL (human) IC50) was less than 100 nM throughout.

For the molecule `CC(C)Oc1cc(CN2CCN(C(=O)Oc3cncc(NS(C)(=O)=O)c3)CC2)ccc1Cl` [Example 15, 5-(Methylsulfonamido)pyridin-3-yl 4-(4-chloro-3-isopropoxybenzyl)piperazine-1-carboxylate], the inhibition at 5 mg/kg at MAGL [1] and on FAAH [4] was 0 to 25% each time. Moreover, the IC50 (as a rule, the concentration needed to halve the response being measured) at FAAH [2] was less than 100 nM; on MAGL [3] (read-out: MAGL (human) IC50), 100 to 1000 nM. Moreover, the inhibition at 1 µM at FAAH [2] and on MAGL [3] was greater than 75% each time.

For the molecule `O=C(Oc1cncc(C(F)(F)F)c1)N1CCC2(CC1)CN(Cc1cccc(Oc3cc(Cl)cc(Cl)c3)c1)C2` [Example 35, 5-(Trifluoromethyl)pyridin-3-yl 2-(3-(3,5-dichlorophenoxy)benzyl)-2,7-diazaspiro[3.5]nonane-7-carboxylate], the inhibition at 1 µM on FAAH [2] and at MAGL [3] was greater than 75% in each case.

For the molecule `O=C(Oc1cncc(C(F)(F)F)c1)N1CCC2(CC1)CN(Cc1cccc(Oc3ccc(C(F)(F)F)cn3)c1)C2` [Example 37, 5-(Trifluoromethyl)pyridin-3-yl 2-(3-((5-(trifluoromethyl)pyridin-2-yl)oxy)benzyl)-2,7-diazaspiro[3.5]nonane-7-carboxylate], the inhibition at 1 µM on FAAH [2] and on MAGL [3] was greater than 75% throughout.

Turning to `O=C(Oc1cncc(C(F)(F)F)c1)N1CCC2(CC1)CN(Cc1cccc(Oc3ccc(C(F)(F)F)nc3)c1)C2` [Example 39, 5-(Trifluoromethyl)pyridin-3-yl 2-(3-((6-(trifluoromethyl)pyridin-3-yl)oxy)benzyl)-2,7-diazaspiro[3.5]nonane-7-carboxylate], the inhibition at 1 µM on FAAH [2] and on MAGL [3] was greater than 75% in each case. Further, the concentration for half-maximal inhibition (IC50) on FAAH [2] (read-out: FAAH (human) IC50) and at MAGL [3] (read-out: MAGL (human) IC50) was 100 to 1000 nM throughout.

As for `O=C(Oc1cncc(C(F)(F)F)c1)N1CCC2(CC1)CN(Cc1cccc(Oc3cccc(Cl)c3)c1Cl)C2` [Example 40, 5-(Trifluoromethyl)pyridin-3-yl 2-(2-chloro-3-(3-chlorophenoxy)benzyl)-2,7-diazaspiro[3.5]nonane-7-carboxylate], the inhibition at 1 µM at FAAH [2] and on MAGL [3] was greater than 75% throughout. Moreover, the IC50 was 100 to 1000 nM at FAAH [2] (read-out: FAAH (human) IC50) and less than 100 nM on MAGL [3].

As for `O=C(Oc1cncc(C(F)(F)F)c1)N1CCC2(CC1)CN(Cc1cccc(Oc3ccccc3)c1Cl)C2` [Example 41, 5-(Trifluoromethyl)pyridin-3-yl 2-(2-chloro-3-phenoxybenzyl)-2,7-diazaspiro[3.5]nonane-7-carboxylate], the inhibition at 1 µM on FAAH [2] and on MAGL [3] was greater than 75% each time.

On to `O=C(Oc1cncc(C(F)(F)F)c1)N1CCN(Cc2cc(Cl)ccc2C(F)(F)F)CC1` [Example 44, 5-(Trifluoromethyl)pyridin-3-yl 4-(5-chloro-2-(trifluoromethyl)benzyl)piperazine-1-carboxylate], for which the inhibition at 1 µM on FAAH [2] and on MAGL [3] was greater than 75% throughout. For the same molecule, the IC50 at FAAH [2] (read-out: FAAH (human) IC50) and on MAGL [3] (read-out: MAGL (human) IC50) was 100 to 1000 nM in each case.

On to `N#Cc1cncc(OC(=O)N2CCN(Cc3cccc(Oc4ncccn4)c3)CC2)c1` [Example 50, 5-Cyanopyridin-3-yl 4-(3-(pyrimidin-2-yloxy)benzyl)piperazine-1-carboxylate], for which the inhibition at 1 µM at FAAH [2] and on MAGL [3] was greater than 75% each time. In addition, the half-maximal inhibitory concentration (IC50) at FAAH [2] (read-out: FAAH (human) IC50) was 100 to 1000 nM; on MAGL [3], less than 100 nM.

On to `CC(C)Oc1cc(CN2CCN(C(=O)Oc3cncc(C(N)=O)c3)[C@H](C)C2)ccc1Cl` [Example 56, (R)-5-Carbamoylpyridin-3-yl 4-(4-chloro-3-isopropoxybenzyl)-2-methylpiperazine-1-carboxylate], for which the inhibition at 1 µM on FAAH [2] and at MAGL [3] was greater than 75% each time. Moreover, the half-maximal inhibitory concentration (IC50) at FAAH [2] (read-out: FAAH (human) IC50) and on MAGL [3] (read-out: MAGL (human) IC50) was 100 to 1000 nM throughout.

Turning to `Cc1c(CN2CCN(C(=O)Oc3cncc(C(N)=O)c3)[C@H](C)C2)cccc1C(F)(F)F` [Example 58, (R)-5-Carbamoylpyridin-3-yl 2-methyl-4-(2-methyl-3-(trifluoromethyl)benzyl)piperazine-1-carboxylate], the half-inhibitory concentration (IC50) against FAAH [2] was less than 100 nM; at MAGL [3] (read-out: MAGL (human) IC50), 100 to 1000 nM. Also, the inhibition at 1 µM at FAAH [2] and on MAGL [3] was greater than 75% throughout.

`Cc1c(CN2CCN(C(=O)Oc3cncc(C(N)=O)c3)[C@@H](C)C2)cccc1C(F)(F)F` [Example 59, (S)-5-Carbamoylpyridin-3-yl 2-methyl-4-(2-methyl-3-(trifluoromethyl)benzyl)piperazine-1-carboxylate]: the inhibition at 1 µM on FAAH [2] is 50 to 75%; at MAGL [3] it was greater than 75%.

Take `C[C@@H]1CN(Cc2cccc(C(F)(F)F)c2Cl)CCN1C(=O)Oc1cncc(C(N)=O)c1` [Example 66, (R)-5-Carbamoylpyridin-3-yl 4-(2-chloro-3-(trifluoromethyl)benzyl)-2-methylpiperazine-1-carboxylate]: the inhibition at 1 µM at FAAH [2] and on MAGL [3] was greater than 75% throughout. The IC50 at FAAH [2] (read-out: FAAH (human) IC50) and on MAGL [3] (read-out: MAGL (human) IC50) was less than 100 nM in each case.

On to `Cc1c(OC(=O)N2CCN(Cc3cccc(C(F)(F)F)c3C)C[C@H]2C)cncc1C(N)=O` [Example 82, 5-Carbamoyl-4-methylpyridin-3-yl (R)-2-methyl-4-(2-methyl-3-(trifluoromethyl)benzyl)piperazine-1-carboxylate], for which the inhibition at 1 µM at FAAH [2] was greater than 75%; at MAGL [3] it was 0 to 25%.

For `Cc1c(C#N)cncc1OC(=O)N1CCN(Cc2cccc(C(F)(F)F)c2C)C[C@H]1C` [Example 83, 5-Cyano-4-methylpyridin-3-yl (R)-2-methyl-4-(2-methyl-3-(trifluoromethyl)benzyl)piperazine-1-carboxylate], the values for the IC50 on FAAH [2] and on MAGL [3] (read-out: MAGL (human) IC50) were less than 100 nM and 100 to 1000 nM, respectively. The inhibition at 1 µM on FAAH [2] and at MAGL [3] was greater than 75% each time.

Consider `C[C@@H]1CN(Cc2cccc(Oc3ncccn3)c2)CCN1C(=O)Oc1cncc(C#N)c1` [Example 84, 5-Cyanopyridin-3-yl (R)-2-methyl-4-(3-(pyrimidin-2-yloxy)benzyl)piperazine-1-carboxylate], for which the inhibition at 1 µM at FAAH [2] and at MAGL [3] was greater than 75% throughout. For the same molecule, the IC50 is 100 to 1000 nM at FAAH [2] (read-out: FAAH (human) IC50) and less than 100 nM against MAGL [3].
